Earlier results, collected in patent publication US20100076052A1, “PERINDOPRIL FORMULATIONS” (priority 2008, published 2010).

Q: Which solubility in alcohol (alcohol) does the source give for `CCCC(N[C@@H](C)C(=O)N1[C@H](C(=O)O)C[C@@H]2CCCC[C@@H]21)C(=O)OCC` (stereo partly drawn) [Perindopril erbumine, (2S,3αS,7αS)-1-[(S)—N—[(S)-1-carboxybutyl]alanyl]hexahydro-2-indolinecarboxylic acid, 1-ethyl ester, compound with t-butylamine (1:1)] here?
A: freely soluble

Q: And the solubility in chloroform (chloroform)?
A: freely soluble

Q: What about the solubility in water (water) of the same compound?
A: 60 % w/w
